Data taken from patent US8178539B2, “Substituted 3,4,6,7-tetrahydro-5H-1,2a,4a,8-tetraazacyclopenta[cd]phenalenes and methods” (3M Innovative Properties Company, priority 2006, dated 2012).
Where a name gives a salt, the structure may show the parent alone.

Compound `CCOCc1nc2c(N)nc3c4c2n1[C@@H](C)CN4CCC3` [Example 5, (3S)-2-(Ethoxymethyl)-3-methyl-3,4,6,7-tetrahydro-5H-1,2a,4a,8-tetraazacyclopenta[cd]phenalen-9-amine] has a melting point of 164.1 to 165.6 °C.
Compound `CCCc1nc2c(N)nc3c4c2n1CCN4CCC3` [Example 3, 2-Propyl-3,4,6,7-tetrahydro-5H-1,2a,4a,8-tetraazacyclopenta[cd]phenalen-9-amine] has a melting point of 225 to 230 °C.
In the case of `CCOCc1nc2c(N)nc3c4c2n1CCN4CCC3` [Example 1, 2-(Ethoxymethyl)-3,4,6,7-tetrahydro-5H-1,2a,4a,8-tetraazacyclopenta[cd]phenalen-9-amine], the melting point is reported as 172 to 173 °C.
`COCCc1nc2c(N)nc3c4c2n1CCN4CCC3` [Example 2, 2-(2-Methoxyethyl)-3,4,6,7-tetrahydro-5H-1,2a,4a,8-tetraazacyclopenta[cd]phenalen-9-amine] gave a melting point of 171 to 172 °C.
With `CCOCc1nc2c(N)nc3c4c2n1CC(C)(C)N4CCC3` (as salt: hydrochloride) [Example 6, 2-(Ethoxymethyl)-4,4-dimethyl-3,4,6,7-tetrahydro-5H-1,2a,4a,8-tetraazacyclopenta[cd]phenalen-9-amine hydrochloride] the melting point was 222 to 227 °C.
For `CCOCc1nc2c(N)nc3c4c2n1[C@H](C)CN4CCC3` [Example 4, (3R)-2-(Ethoxymethyl)-3-methyl-3,4,6,7-tetrahydro-5H-1,2a,4a,8-tetraazacyclopenta[cd]phenalen-9-amine], the melting point was 164.5 to 166.1 °C.
